Test results: PMC11672637, “7-O-Carboxylic Acid-Substituted 3-O-Alkyl Difluoroquercetin; An Aztreonam-Potentiating Agent Against Carbapenemase-Producing Pseudomonas aeruginosa Through Simultaneous Inhibition of Metallo-β-Lactamase and Efflux Pump” (Antibiotics, 2024)
Read-outs that look alike come from different tables or passages of the source.

Key:
Type in all cases: cell-based, P. aeruginosa
[1] = test system: PA-014, blaGES; assay: Time–kill assay; conditions: for Log CFU/mL, ATM + 5: 24 h
Protocol: (§1) Aliquots (50 μL) were taken from the incubation mixture at regular time intervals (t = 0, 3, 6, and 24 h), serially diluted in 0.85% NaCl solution, and plated on BAP. Bacterial colonies were counted, and the data are presented as the means of at least three independent experiments.

[2] = test system: PA-017, blaNDM; assay: Time–kill assay; conditions: for Log CFU/mL, ATM + 5: 24 h
Protocol: as §1

[3] = test system: PA-003, blaVIM; assay: Time–kill assay; conditions: for Log CFU/mL, ATM + 5: 24 h
Protocol: as §1

[4] = test system: PA-035, blaGES; assay: MIC / checkerboard with ATM; conditions: for MIC: Pseudomonas aeruginosa, read-out: MIC of ATM with 5, PA-035

CC(C)(C)CCOc1c(-c2ccc(F)c(F)c2)oc2cc(OCC(=O)O)cc(O)c2c1=O [Compound 5, 2-((2-(3,4-Difluorophenyl)-3-(3,3-dimethylbutoxy)-5-hydroxy-4-oxo-4H-chromen-7-yl)oxy)acetic Acid]
Diff. (ATM + 5 vs ATM only) ([1]; ATM 1/2 MIC + 5 at 8 mg/L): −2.23 Log CFU/mL
Synergistic activity, interpretation ([1]; ATM 1/2 MIC + 5 at 8 mg/L): Synergy (a ≥ 2 log10 decrease in CFU/mL for the combination of ATM and 5 compared to ATM alone after 24 h of incubation)
Log CFU/mL, ATM + 5 ([1]; ATM 1/2 MIC + 5 at 8 mg/L): 6.60 Log CFU/mL
Diff. (ATM + 5, 24 h vs initial inoculum) ([1]; ATM 1/4 MIC + 5 at 8 mg/L): 3.88 Log CFU/mL
Diff. (ATM + 5 vs ATM only) ([1]; ATM 1/4 MIC + 5 at 8 mg/L): −0.5 Log CFU/mL
Log CFU/mL, ATM + 5 ([1]; ATM 1/4 MIC + 5 at 8 mg/L): 8.83 Log CFU/mL
Diff. (ATM + 5, 24 h vs initial inoculum) ([1]; ATM 1 MIC + 5 at 8 mg/L): −2.32 Log CFU/mL
Diff. (ATM + 5 vs ATM only) ([1]; ATM 1 MIC + 5 at 8 mg/L): −5.05 Log CFU/mL
Synergistic activity, interpretation ([1]; ATM 1 MIC + 5 at 8 mg/L): Synergy (a ≥ 2 log10 decrease in CFU/mL for the combination of ATM and 5 compared to ATM alone after 24 h of incubation)
Log CFU/mL, ATM + 5 ([1]; ATM 1 MIC + 5 at 8 mg/L): 2.63 Log CFU/mL
Diff. (ATM + 5, 24 h vs initial inoculum) ([1]; ATM 2 MIC + 5 at 8 mg/L): −4.8 Log CFU/mL
Diff. (ATM + 5 vs ATM only) ([1]; ATM 2 MIC + 5 at 8 mg/L): −2.3 Log CFU/mL
Synergistic activity, interpretation ([1]; ATM 2 MIC + 5 at 8 mg/L): Synergy (a ≥ 2 log10 decrease in CFU/mL for the combination of ATM and 5 compared to ATM alone after 24 h of incubation)
Log CFU/mL, ATM + 5 ([1]; ATM 2 MIC + 5 at 8 mg/L): 0.15 Log CFU/mL
Diff. (ATM + 5, 24 h vs initial inoculum) ([2]; ATM 1/2 MIC + 5 at 8 mg/L): 1.52 Log CFU/mL
Diff. (ATM + 5 vs ATM only) ([2]; ATM 1/2 MIC + 5 at 8 mg/L): −3.45 Log CFU/mL
Synergistic activity, interpretation ([2]; ATM 1/2 MIC + 5 at 8 mg/L): Synergy (a ≥ 2 log10 decrease in CFU/mL for the combination of ATM and 5 compared to ATM alone after 24 h of incubation)
Log CFU/mL, ATM + 5 ([2]; ATM 1/2 MIC + 5 at 8 mg/L): 6.52 Log CFU/mL
Diff. (ATM + 5, 24 h vs initial inoculum) ([2]; ATM 1/4 MIC + 5 at 8 mg/L): 4.97 Log CFU/mL
Diff. (ATM + 5 vs ATM only) ([2]; ATM 1/4 MIC + 5 at 8 mg/L): −0.77 Log CFU/mL
Log CFU/mL, ATM + 5 ([2]; ATM 1/4 MIC + 5 at 8 mg/L): 9.97 Log CFU/mL
Diff. (ATM + 5, 24 h vs initial inoculum) ([2]; ATM 1 MIC + 5 at 8 mg/L): −4.75 Log CFU/mL
Diff. (ATM + 5 vs ATM only) ([2]; ATM 1 MIC + 5 at 8 mg/L): −6.27 Log CFU/mL
Synergistic activity, interpretation ([2]; ATM 1 MIC + 5 at 8 mg/L): Synergy (a ≥ 2 log10 decrease in CFU/mL for the combination of ATM and 5 compared to ATM alone after 24 h of incubation)
Log CFU/mL, ATM + 5 ([2]; ATM 1 MIC + 5 at 8 mg/L): 0.25 Log CFU/mL
Diff. (ATM + 5, 24 h vs initial inoculum) ([2]; ATM 2 MIC + 5 at 8 mg/L): −5.00 Log CFU/mL
Diff. (ATM + 5 vs ATM only) ([2]; ATM 2 MIC + 5 at 8 mg/L): −0.12 Log CFU/mL
Log CFU/mL, ATM + 5 ([2]; ATM 2 MIC + 5 at 8 mg/L): 0.00 Log CFU/mL
Diff. (ATM + 5, 24 h vs initial inoculum) ([3]; ATM 1/2 MIC + 5 at 8 mg/L): 4.11 Log CFU/mL
Diff. (ATM + 5 vs ATM only) ([3]; ATM 1/2 MIC + 5 at 8 mg/L): −0.04 Log CFU/mL
Log CFU/mL, ATM + 5 ([3]; ATM 1/2 MIC + 5 at 8 mg/L): 9.84 Log CFU/mL
Diff. (ATM + 5, 24 h vs initial inoculum) ([3]; ATM 1/4 MIC + 5 at 8 mg/L): 4.35 Log CFU/mL
Diff. (ATM + 5 vs ATM only) ([3]; ATM 1/4 MIC + 5 at 8 mg/L): −0.1 Log CFU/mL
Log CFU/mL, ATM + 5 ([3]; ATM 1/4 MIC + 5 at 8 mg/L): 10.08 Log CFU/mL
Diff. (ATM + 5, 24 h vs initial inoculum) ([3]; ATM 1 MIC + 5 at 8 mg/L): −5.5 Log CFU/mL
Diff. (ATM + 5 vs ATM only) ([3]; ATM 1 MIC + 5 at 8 mg/L): −8.9 Log CFU/mL
Synergistic activity, interpretation ([3]; ATM 1 MIC + 5 at 8 mg/L): Synergy (a ≥ 2 log10 decrease in CFU/mL for the combination of ATM and 5 compared to ATM alone after 24 h of incubation)
Log CFU/mL, ATM + 5 ([3]; ATM 1 MIC + 5 at 8 mg/L): 0.23 Log CFU/mL
Diff. (ATM + 5, 24 h vs initial inoculum) ([3]; ATM 2 MIC + 5 at 8 mg/L): −5.73 Log CFU/mL
Diff. (ATM + 5 vs ATM only) ([3]; ATM 2 MIC + 5 at 8 mg/L): −6.4 Log CFU/mL
Synergistic activity, interpretation ([3]; ATM 2 MIC + 5 at 8 mg/L): Synergy (a ≥ 2 log10 decrease in CFU/mL for the combination of ATM and 5 compared to ATM alone after 24 h of incubation)
Log CFU/mL, ATM + 5 ([3]; ATM 2 MIC + 5 at 8 mg/L): 0.00 Log CFU/mL
Activity (FICI class) ([4]; PA-035): S (S (Synergy, FICI ≤ 0.5))
Concentrations of ATM and 5 at lowest FICI (ATM/5) ([4]; PA-035): 2/8
Lowest FICI (ATM/5) ([4]; PA-035): 0.27
Susceptibility to ATM ([4]; PA-035, ATM/5): S (S (sensitive, MIC ≤ 8 mg/L))
FD (fold decrease in MIC of ATM with 5) ([4]; PA-035, lowest-FICI combination): 4
MIC ([4]; 5 at 1 mg/L): 8 µg/mL
MIC ([4]; 5 at 2 mg/L): 4 µg/mL
MIC ([4]; 5 at 4 mg/L): 4 µg/mL
MIC ([4]; 5 at 8 mg/L): 2 µg/mL
MIC ([4]; 5 at 16 mg/L): 2 µg/mL
MIC ([4]; 5 at 32 mg/L): 2 µg/mL
MIC ([4]; 5 at 64 mg/L): 2 µg/mL
